Square brackets hold non-standard residues; d marks the D form. Peptide text beside a SMILES is read from it. * marks the point of attachment. dPhe(4-Cl) = N[C@H](Cc1ccc(Cl)cc1)C(=O)O; d2Nal = N[C@H](Cc1ccc2ccccc2c1)C(=O)O; Cyclopentanecarbonyl = O=C(C1CCCC1)*; Lys(iPr) = CC(C)NCCCC[C@H](N)C(=O)O; NMeY = CN[C@@H](Cc1ccc(O)cc1)C(=O)O; Cyclohexylacetyl = O=C(CC1CCCCC1)*; Cyclopropanecarbonyl = O=C(C1CC1)*; Hydrocinnamoyl = O=C(CCc1ccccc1)*; d3Pal = N[C@H](Cc1cccnc1)C(=O)O; Nicotinoyl = O=C(c1cccnc1)*; Methoxyacetyl = COCC(=O)*; Isobutyryl = CC(C)C(=O)*; PhAc = O=C(Cc1ccccc1)*; Propionyl = CCC(=O)*; Butyryl = CCCC(=O)*; Bz = O=C(c1ccccc1)*; X4 = N#CCC(=O)*; For = O=C*
Molecular target: T1, LHRH (Rattus norvegicus, UniProt P30969)
T1 construct: evaluated in an in vitro test for LHRH antagonist potency (pA2); endogenous in cells; host or cells: pituitary cells (rat, from my own knowledge of the cited method)
T1 sequence (P30969 1-327): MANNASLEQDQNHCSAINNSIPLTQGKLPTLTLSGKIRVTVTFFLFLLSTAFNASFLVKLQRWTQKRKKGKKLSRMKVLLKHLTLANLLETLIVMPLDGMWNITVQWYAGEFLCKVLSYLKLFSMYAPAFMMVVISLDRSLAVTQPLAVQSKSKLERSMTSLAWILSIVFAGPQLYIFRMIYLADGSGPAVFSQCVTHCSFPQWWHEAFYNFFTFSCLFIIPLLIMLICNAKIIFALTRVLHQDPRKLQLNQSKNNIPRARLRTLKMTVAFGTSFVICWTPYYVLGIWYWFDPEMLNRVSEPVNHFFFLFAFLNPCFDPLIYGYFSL
Test: in vitro test for LHRH antagonist potency (pA2)
Format: cell-based
Details: negative logarithm of the antagonist concentration required to shift the response curve produced by the agonist leuprolide to two-fold higher concentration
Experimental: Representative compounds of the present invention were evaluated in an in vitro test for LHRH antagonist potency (pA2). The test employed the method detailed in F. Haviv, et al. J. Med. Chem., 32:2340-2344 (1989). The values of pA2 are the negative logarithms of the concentration of the particular antagonist test compound required to shift the response curve produced by the agonist leuprolide to two-fold higher concentration. (Leuprolide is the LHRH agonist having the structure 5-oxo-Pro^1 -His^2 -Trp^3 -Ser^4 -Tyr^5 -D-Leu^6 -Leu^7 -Arg^8 -Pro^9 -NHEt and is disclosed and claimed in U.S. Pat. No. 4,005,063.) Typically pA2 values of 9.5 or greater are indicative of good LHRH antagonist potency, with values of 10.0 or greater being preferred.

Point of comparison: `CC(C)C[C@H](NC(=O)[C@@H](CCCCNC(=O)c1cccnc1)NC(=O)[C@H](Cc1ccc(O)cc1)N(C)C(=O)[C@H](CO)NC(=O)[C@@H](Cc1cccnc1)NC(=O)[C@@H](Cc1ccc(Cl)cc1)NC(=O)[C@@H](Cc1ccc2ccccc2c1)NC(=O)C1CCCC1)C(=O)N[C@@H](CCCCNC(C)C)C(=O)N1CCC[C@H]1C(=O)N[C@H](C)C(N)=O` [Example 2g, N-Cyclopentylcarbonyl-D2Nal-D4ClPhe-D3Pal-Ser-NMeTyr-DLys(N-epsilon-Nicotinyl)-Leu-Lys(N-epsilon-lsopropyl)-Pro-DAlaNH 2] (Cyclopentanecarbonyl-[d2Nal][dPhe(4-Cl)][d3Pal]S[NMeY][dK](Nicotinoyl)L[Lys(iPr)]P[dA]-NH2), Kb 0.0708 nM. Against it:
- CC(C)C[C@H](NC(=O)[C@@H](CCCCNC(=O)c1cccnc1)NC(=O)[C@H](Cc1ccc(O)cc1)N(C)C(=O)[C@H](CO)NC(=O)[C@@H](Cc1cccnc1)NC(=O)[C@@H](Cc1ccc(Cl)cc1)NC(=O)[C@@H](Cc1ccc2ccccc2c1)NC=O)C(=O)N[C@@H](CCCCNC(C)C)C(=O)N1CCC[C@H]1C(=O)N[C@H](C)C(N)=O [Example 1, N-Formyl-D2Nal-D4ClPhe-D3Pal-Ser-NMeTyr-DLys(Nicotinyl)-Leu-Lys(N-epsilon-lsopropyl)-Pro-DAlaNH2] (For-[d2Nal][dPhe(4-Cl)][d3Pal]S[NMeY][dK](Nicotinoyl)L[Lys(iPr)]P[dA]-NH2) — 45-fold lower, 0.00158 nM
- CCC(=O)N[C@H](Cc1ccc2ccccc2c1)C(=O)N[C@H](Cc1ccc(Cl)cc1)C(=O)N[C@H](Cc1cccnc1)C(=O)N[C@@H](CO)C(=O)N(C)[C@@H](Cc1ccc(O)cc1)C(=O)N[C@H](CCCCNC(=O)c1cccnc1)C(=O)N[C@@H](CC(C)C)C(=O)N[C@@H](CCCCNC(C)C)C(=O)N1CCC[C@H]1C(=O)N[C@H](C)C(N)=O [Example 2a, N-Propionyl-D2Nal-D4ClPhe-D3Pal-Ser-NMeTyr-DLys(N-epsilon-Nicotinyl)-Leu-Lys(N-epsilon-Isopropyl)-Pro-DAlaNH 2] (Propionyl-[d2Nal][dPhe(4-Cl)][d3Pal]S[NMeY][dK](Nicotinoyl)L[Lys(iPr)]P[dA]-NH2) — 14-fold lower, 0.00501 nM
- CCCC(=O)N[C@H](Cc1ccc2ccccc2c1)C(=O)N[C@H](Cc1ccc(Cl)cc1)C(=O)N[C@H](Cc1cccnc1)C(=O)N[C@@H](CO)C(=O)N(C)[C@@H](Cc1ccc(O)cc1)C(=O)N[C@H](CCCCNC(=O)c1cccnc1)C(=O)N[C@@H](CC(C)C)C(=O)N[C@@H](CCCCNC(C)C)C(=O)N1CCC[C@H]1C(=O)N[C@H](C)C(N)=O [Example 2b, N-Butyryl-D2Nal-D4ClPhe-D3Pal-Ser-NMeTyr-DLys(N-epsilon-Nicotinyl)-Leu-Lys(N-epsilon-Isopropyl)-Pro-DAlaNH 2] (Butyryl-[d2Nal][dPhe(4-Cl)][d3Pal]S[NMeY][dK](Nicotinoyl)L[Lys(iPr)]P[dA]-NH2) — 7.9-fold lower, 0.00891 nM
- CC(C)C[C@H](NC(=O)[C@@H](CCCCNC(=O)c1cccnc1)NC(=O)[C@H](Cc1ccc(O)cc1)N(C)C(=O)[C@H](CO)NC(=O)[C@@H](Cc1cccnc1)NC(=O)[C@@H](Cc1ccc(Cl)cc1)NC(=O)[C@@H](Cc1ccc2ccccc2c1)NC(=O)C(C)C)C(=O)N[C@@H](CCCCNC(C)C)C(=O)N1CCC[C@H]1C(=O)N[C@H](C)C(N)=O [Example 2c, N-Isobutyryl-D2Nal-D4ClPhe-D3Pal- Ser-NMeTyr-DLys(N-epsilon-Nicotinyl)-Leu-Lys(N-epsilon-Isopropyl)-Pro-DAlaNH2] (Isobutyryl-[d2Nal][dPhe(4-Cl)][d3Pal]S[NMeY][dK](Nicotinoyl)L[Lys(iPr)]P[dA]-NH2) — 4-fold lower, 0.0178 nM
- COCC(=O)N[C@H](Cc1ccc2ccccc2c1)C(=O)N[C@H](Cc1ccc(Cl)cc1)C(=O)N[C@H](Cc1cccnc1)C(=O)N[C@@H](CO)C(=O)N(C)[C@@H](Cc1ccc(O)cc1)C(=O)N[C@H](CCCCNC(=O)c1cccnc1)C(=O)N[C@@H](CC(C)C)C(=O)N[C@@H](CCCCNC(C)C)C(=O)N1CCC[C@H]1C(=O)N[C@H](C)C(N)=O [Example 2d, N-Methoxyacetyl-D2Nal-D4ClPhe-D3Pal-Ser-NMeTyr-DLys(N-epsilon-Nicotinyl)-Leu-Lys(N-epsilon-Isopropyl)-Pro-DAlaNH 2] (Methoxyacetyl-[d2Nal][dPhe(4-Cl)][d3Pal]S[NMeY][dK](Nicotinoyl)L[Lys(iPr)]P[dA]-NH2) — 9.8-fold lower, 0.00724 nM
- CC(C)C[C@H](NC(=O)[C@@H](CCCCNC(=O)c1cccnc1)NC(=O)[C@H](Cc1ccc(O)cc1)N(C)C(=O)[C@H](CO)NC(=O)[C@@H](Cc1cccnc1)NC(=O)[C@@H](Cc1ccc(Cl)cc1)NC(=O)[C@@H](Cc1ccc2ccccc2c1)NC(=O)CC#N)C(=O)N[C@@H](CCCCNC(C)C)C(=O)N1CCC[C@H]1C(=O)N[C@H](C)C(N)=O [Example 2e, N-Cyanoacetyl-D2Nal-D4ClPhe-D3Pal-Ser-NMeTyr-DLys(N-epsilon-Nicotinyl)-Leu- Lys(N-epsilon-Isopropyl)-Pro-DAlaNH2] (X4-[d2Nal][dPhe(4-Cl)][d3Pal]S[NMeY][dK](Nicotinoyl)L[Lys(iPr)]P[dA]-NH2) — 22-fold lower, 0.00316 nM
- CC(C)C[C@H](NC(=O)[C@@H](CCCCNC(=O)c1cccnc1)NC(=O)[C@H](Cc1ccc(O)cc1)N(C)C(=O)[C@H](CO)NC(=O)[C@@H](Cc1cccnc1)NC(=O)[C@@H](Cc1ccc(Cl)cc1)NC(=O)[C@@H](Cc1ccc2ccccc2c1)NC(=O)C1CC1)C(=O)N[C@@H](CCCCNC(C)C)C(=O)N1CCC[C@H]1C(=O)N[C@H](C)C(N)=O [Example 2f, N-Cyclopropylcarbonyl-D2Nal-D4ClPhe- D3Pal-Ser-NMeTyr-DLys(N-epsilon-Nicotinyl)-Leu-Lys(N-epsilon-Isopropyl)-Pro-DAlaNH 2] (Cyclopropanecarbonyl-[d2Nal][dPhe(4-Cl)][d3Pal]S[NMeY][dK](Nicotinoyl)L[Lys(iPr)]P[dA]-NH2) — 20-fold lower, 0.00355 nM
- CC(C)C[C@H](NC(=O)[C@@H](CCCCNC(=O)c1cccnc1)NC(=O)[C@H](Cc1ccc(O)cc1)N(C)C(=O)[C@H](CO)NC(=O)[C@@H](Cc1cccnc1)NC(=O)[C@@H](Cc1ccc(Cl)cc1)NC(=O)[C@@H](Cc1ccc2ccccc2c1)NC(=O)CC1CCCCC1)C(=O)N[C@@H](CCCCNC(C)C)C(=O)N1CCC[C@H]1C(=O)N[C@H](C)C(N)=O [Example 2i, N-Cyclohexylacetyl-D2Nal-D4ClPhe-D3Pal-Ser-NMeTyr-DLys(N-epsilon-Nicotinyl)-Leu-Lys(N-epsilon-Isopropyl)-Pro-DAlaNH 2] (Cyclohexylacetyl-[d2Nal][dPhe(4-Cl)][d3Pal]S[NMeY][dK](Nicotinoyl)L[Lys(iPr)]P[dA]-NH2) — 22-fold higher, 1.58 nM
- CC(C)C[C@H](NC(=O)[C@@H](CCCCNC(=O)c1cccnc1)NC(=O)[C@H](Cc1ccc(O)cc1)N(C)C(=O)[C@H](CO)NC(=O)[C@@H](Cc1cccnc1)NC(=O)[C@@H](Cc1ccc(Cl)cc1)NC(=O)[C@@H](Cc1ccc2ccccc2c1)NC(=O)c1ccccc1)C(=O)N[C@@H](CCCCNC(C)C)C(=O)N1CCC[C@H]1C(=O)N[C@H](C)C(N)=O [Example 2j, N-Benzoyl-D2Nal-D4ClPhe-D3Pal-Ser-NMeTyr-DLys(N-epsilon-Nicotinyl)-Leu-Lys(N-epsilon-Isopropyl)-Pro-DAlaNH2] (Bz-[d2Nal][dPhe(4-Cl)][d3Pal]S[NMeY][dK](Nicotinoyl)L[Lys(iPr)]P[dA]-NH2) — within 1.5-fold, 0.0501 nM
- CC(C)C[C@H](NC(=O)[C@@H](CCCCNC(=O)c1cccnc1)NC(=O)[C@H](Cc1ccc(O)cc1)N(C)C(=O)[C@H](CO)NC(=O)[C@@H](Cc1cccnc1)NC(=O)[C@@H](Cc1ccc(Cl)cc1)NC(=O)[C@@H](Cc1ccc2ccccc2c1)NC(=O)Cc1ccccc1)C(=O)N[C@@H](CCCCNC(C)C)C(=O)N1CCC[C@H]1C(=O)N[C@H](C)C(N)=O [Example 2k, N-Phenylacetyl-D2Nal-D4ClPhe-D3Pal-Ser-NMeTyr-DLys(N-epsilon-Nicotinyl)-Leu-Lys(N-epsilon-Isopropyl)-Pro-DAlaNH2] (PhAc-[d2Nal][dPhe(4-Cl)][d3Pal]S[NMeY][dK](Nicotinoyl)L[Lys(iPr)]P[dA]-NH2) — 5-fold lower, 0.0141 nM
- CC(C)C[C@H](NC(=O)[C@@H](CCCCNC(=O)c1cccnc1)NC(=O)[C@H](Cc1ccc(O)cc1)N(C)C(=O)[C@H](CO)NC(=O)[C@@H](Cc1cccnc1)NC(=O)[C@@H](Cc1ccc(Cl)cc1)NC(=O)[C@@H](Cc1ccc2ccccc2c1)NC(=O)CCc1ccccc1)C(=O)N[C@@H](CCCCNC(C)C)C(=O)N1CCC[C@H]1C(=O)N[C@H](C)C(N)=O [Example 2l, N-3-Phenylpropionyl-D2Nal-D4ClPhe-D3Pal-Ser-NMeTyr-DLys(N-epsilon-Nicotinyl)-Leu-Lys(N-epsilon-Isopropyl)-Pro-DAlaNH 2] (Hydrocinnamoyl-[d2Nal][dPhe(4-Cl)][d3Pal]S[NMeY][dK](Nicotinoyl)L[Lys(iPr)]P[dA]-NH2) — 5.6-fold lower, 0.0126 nM
